Data: ChEMBL document CHEMBL1671676, “In vitro activity of nemonoxacin, a novel nonfluorinated quinolone, against 2,440 clinical isolates” (2009)
In brackets after ≈: the same amount, converted by molar mass.

Legend:
Assay type in all cases: functional
[1] = system: Staphylococcus epidermidis; test: Antibacterial activity against methicillin-susceptible Staphylococcus epidermidis assessed as percent cumulative susceptible isolates at minimum inhibitory concentration of 4 ug/ml by CLSI broth microdilution method; parameters: scale not given: the % may be the effect or the level left
Staphylococcus aureus [2] = test: Antibacterial activity against methicillin-susceptible Staphylococcus aureus assessed as percent cumulative susceptible isolates at minimum inhibitory concentration of 0.5 ug/ml by CLSI broth microdilution method; parameters: scale not given: the % may be the effect or the level left
Acinetobacter baumannii [3] = test: Antibacterial activity against Acinetobacter baumannii assessed as percent cumulative susceptible isolates at minimum inhibitory concentration of 0.5 ug/ml by CLSI broth microdilution method; parameters: scale not given: the % may be the effect or the level left
Klebsiella oxytoca = test: Antibacterial activity against Klebsiella oxytoca assessed as percent cumulative susceptible isolates at minimum inhibitory concentration of […] by CLSI broth microdilution method; parameters: scale not given: the % may be the effect or the level left
Staphylococcus aureus [4] = test: Antibacterial activity against methicillin-resistant Staphylococcus aureus assessed as percent cumulative susceptible isolates at minimum inhibitory concentration of 1 ug/ml by CLSI broth microdilution method; parameters: scale not given: the % may be the effect or the level left
Streptococcus pneumoniae = test: Antibacterial activity against Streptococcus pneumoniae assessed as percent cumulative susceptible isolates at minimum inhibitory concentration of 0.06 ug/ml by CLSI broth microdilution method; parameters: scale not given: the % may be the effect or the level left
Pseudomonas aeruginosa [5] = test: Antibacterial activity against Pseudomonas aeruginosa assessed as percent cumulative susceptible isolates at minimum inhibitory concentration of 1 ug/ml by CLSI broth microdilution method; parameters: scale not given: the % may be the effect or the level left
Enterobacteriaceae = test: Antibacterial activity against Enterobacteriaceae by CLSI M7-A7 broth microdilution method
Enterobacter cloacae [6] = test: Antibacterial activity against Enterobacter cloacae assessed as percent cumulative susceptible isolates at minimum inhibitory concentration of 4 ug/ml by CLSI broth microdilution method; parameters: scale not given: the % may be the effect or the level left
Enterobacter cloacae [7] = test: Antibacterial activity against Enterobacter cloacae assessed as percent cumulative susceptible isolates at minimum inhibitory concentration of 32 ug/ml by CLSI broth microdilution method; parameters: scale not given: the % may be the effect or the level left
Enterococcus faecium = test: Antibacterial activity against Enterococcus faecium assessed as percent cumulative susceptible isolates at minimum inhibitory concentration of 2 ug/ml by CLSI broth microdilution method; parameters: scale not given: the % may be the effect or the level left
Escherichia coli [8] = test: Antibacterial activity against Escherichia coli assessed as percent cumulative susceptible isolates at minimum inhibitory concentration of […] by CLSI broth microdilution method; parameters: scale not given: the % may be the effect or the level left
Staphylococcus aureus [9] = test: Antibacterial activity against hospital-associated methicillin-resistant Staphylococcus aureus assessed as percent cumulative susceptible isolates at minimum inhibitory concentration of […] by CLSI broth microdilution method; parameters: scale not given: the % may be the effect or the level left
[10] = system: Stenotrophomonas maltophilia; test: Antibacterial activity against Stenotrophomonas maltophilia assessed as percent cumulative susceptible isolates at minimum inhibitory concentration of 4 ug/ml by CLSI broth microdilution method; parameters: scale not given: the % may be the effect or the level left
Enterobacter cloacae [11] = test: Antibacterial activity against Enterobacter cloacae assessed as percent cumulative susceptible isolates at minimum inhibitory concentration of 1 ug/ml by CLSI broth microdilution method; parameters: scale not given: the % may be the effect or the level left
Klebsiella pneumoniae [12] = test: Antibacterial activity against Klebsiella pneumoniae assessed as percent cumulative susceptible isolates at minimum inhibitory concentration of 0.5 ug/ml by CLSI broth microdilution method; parameters: scale not given: the % may be the effect or the level left
[13] = system: Staphylococcus epidermidis; test: Antibacterial activity against methicillin-susceptible Staphylococcus epidermidis assessed as percent cumulative susceptible isolates at minimum inhibitory concentration of 2 ug/ml by CLSI broth microdilution method; parameters: scale not given: the % may be the effect or the level left
Escherichia coli [14] = test: Antibacterial activity against Escherichia coli assessed as percent cumulative susceptible isolates at minimum inhibitory concentration of 0.5 ug/ml by CLSI broth microdilution method; parameters: scale not given: the % may be the effect or the level left
Pseudomonas aeruginosa [15] = test: Antibacterial activity against Pseudomonas aeruginosa assessed as percent cumulative susceptible isolates at minimum inhibitory concentration of 2 ug/ml by CLSI broth microdilution method; parameters: scale not given: the % may be the effect or the level left
Staphylococcus aureus [16] = test: Antibacterial activity against community-associated methicillin-resistant Staphylococcus aureus assessed as percent cumulative susceptible isolates at minimum inhibitory concentration of […] by CLSI broth microdilution method; parameters: scale not given: the % may be the effect or the level left
Acinetobacter baumannii [17] = test: Antibacterial activity against Acinetobacter baumannii assessed as percent cumulative susceptible isolates at minimum inhibitory concentration of […] by CLSI broth microdilution method; parameters: scale not given: the % may be the effect or the level left
[18] = system: Stenotrophomonas maltophilia; test: Antibacterial activity against Stenotrophomonas maltophilia assessed as percent cumulative susceptible isolates at minimum inhibitory concentration of 2 ug/ml by CLSI broth microdilution method; parameters: scale not given: the % may be the effect or the level left
[19] = system: Staphylococcus epidermidis; test: Antibacterial activity against methicillin-susceptible Staphylococcus epidermidis assessed as percent cumulative susceptible isolates at minimum inhibitory concentration of […] by CLSI broth microdilution method; parameters: scale not given: the % may be the effect or the level left
Proteus mirabilis = test: Antibacterial activity against Proteus mirabilis assessed as percent cumulative susceptible isolates at minimum inhibitory concentration of 4 ug/ml by CLSI broth microdilution method; parameters: scale not given: the % may be the effect or the level left
Klebsiella pneumoniae [20] = test: Antibacterial activity against Klebsiella pneumoniae assessed as percent cumulative susceptible isolates at minimum inhibitory concentration of 32 ug/ml by CLSI broth microdilution method; parameters: scale not given: the % may be the effect or the level left
Staphylococcus aureus [21] = test: Antibacterial activity against methicillin-resistant Staphylococcus aureus assessed as percent cumulative susceptible isolates at minimum inhibitory concentration of […] by CLSI broth microdilution method; parameters: scale not given: the % may be the effect or the level left
Klebsiella pneumoniae [22] = test: Antibacterial activity against Klebsiella pneumoniae assessed as percent cumulative susceptible isolates at minimum inhibitory concentration of 1 ug/ml by CLSI broth microdilution method; parameters: scale not given: the % may be the effect or the level left
Klebsiella pneumoniae [23] = test: Antibacterial activity against Klebsiella pneumoniae assessed as percent cumulative susceptible isolates at minimum inhibitory concentration of 4 ug/ml by CLSI broth microdilution method; parameters: scale not given: the % may be the effect or the level left
Klebsiella pneumoniae [24] = test: Antibacterial activity against Klebsiella pneumoniae assessed as percent cumulative susceptible isolates at minimum inhibitory concentration of 2 ug/ml by CLSI broth microdilution method; parameters: scale not given: the % may be the effect or the level left
Staphylococcus aureus [25] = test: Antibacterial activity against methicillin-susceptible Staphylococcus aureus assessed as percent cumulative susceptible isolates at minimum inhibitory concentration of […] by CLSI broth microdilution method; parameters: scale not given: the % may be the effect or the level left
Enterobacter cloacae [26] = test: Antibacterial activity against Enterobacter cloacae assessed as percent cumulative susceptible isolates at minimum inhibitory concentration of 8 ug/ml by CLSI broth microdilution method; parameters: scale not given: the % may be the effect or the level left
Acinetobacter baumannii [27] = test: Antibacterial activity against Acinetobacter baumannii assessed as percent cumulative susceptible isolates at minimum inhibitory concentration of 16 ug/ml by CLSI broth microdilution method; parameters: scale not given: the % may be the effect or the level left
[28] = system: Stenotrophomonas maltophilia; test: Antibacterial activity against Stenotrophomonas maltophilia assessed as percent cumulative susceptible isolates at minimum inhibitory concentration of 1 ug/ml by CLSI broth microdilution method; parameters: scale not given: the % may be the effect or the level left
Enterococcus faecalis [29] = test: Antibacterial activity against Enterococcus faecalis assessed as percent cumulative susceptible isolates at minimum inhibitory concentration of 1 ug/ml by CLSI broth microdilution method; parameters: scale not given: the % may be the effect or the level left
Enterococcus faecalis [30] = test: Antibacterial activity against Enterococcus faecalis assessed as percent cumulative susceptible isolates at minimum inhibitory concentration of 2 ug/ml by CLSI broth microdilution method; parameters: scale not given: the % may be the effect or the level left
Klebsiella pneumoniae [31] = test: Antibacterial activity against Klebsiella pneumoniae assessed as percent cumulative susceptible isolates at minimum inhibitory concentration of 0.06 ug/ml by CLSI broth microdilution method; parameters: scale not given: the % may be the effect or the level left
Escherichia coli [32] = test: Antibacterial activity against Escherichia coli assessed as percent cumulative susceptible isolates at minimum inhibitory concentration of 1 ug/ml by CLSI broth microdilution method; parameters: scale not given: the % may be the effect or the level left
Pseudomonas aeruginosa [33] = test: Antibacterial activity against Pseudomonas aeruginosa assessed as percent cumulative susceptible isolates at minimum inhibitory concentration of 0.5 ug/ml by CLSI broth microdilution method; parameters: scale not given: the % may be the effect or the level left
Enterococcus faecalis [34] = test: Antibacterial activity against Enterococcus faecalis assessed as percent cumulative susceptible isolates at minimum inhibitory concentration of […] by CLSI broth microdilution method; parameters: scale not given: the % may be the effect or the level left

## C[C@H]1COc2c(N3CCN(C)CC3)c(F)cc3c(=O)c(C(=O)O)cn1c23.C[C@H]1COc2c(N3CCN(C)CC3)c(F)cc3c(=O)c(C(=O)O)cn1c23.O [LEVOFLOXACIN]
[1]
  Activity: 62.8%
Staphylococcus aureus [2]
  Activity: 88.8%
Acinetobacter baumannii [3]
  Activity: 86.7%
Klebsiella oxytoca
  Activity: 100%
Staphylococcus aureus [4]
  Activity: 9.4%
Streptococcus pneumoniae
  Activity: 0.5%
Pseudomonas aeruginosa [5]
  Activity: 59.9%
Enterobacteriaceae
  MIC90: ≤ 0.06 µg/mL
Enterobacter cloacae [6]
  Activity: 97.2%
Enterobacter cloacae [7]
  Activity: 100%
Enterococcus faecium
  Activity: 23.7%
Escherichia coli [8]
  Activity: 70%
Staphylococcus aureus [9]
  Activity: 3%
[10]
  Activity: 84.6%
Enterobacter cloacae [11]
  Activity: 91.7%
Klebsiella pneumoniae [12]
  Activity: 87.4%
[13]
  Activity: 55.8%
Escherichia coli [14]
  Activity: 73.6%
Pseudomonas aeruginosa [15]
  Activity: 70.1%
Staphylococcus aureus [16]
  Activity: 24%
Acinetobacter baumannii [17]
  Activity: 80%
[18]
  Activity: 69.2%
[19]
  Activity: 53.5%
Proteus mirabilis
  Activity: 93.9%
Klebsiella pneumoniae [20]
  Activity: 100%
Staphylococcus aureus [21]
  Activity: 8.7%
Klebsiella pneumoniae [22]
  Activity: 92.5%
Klebsiella pneumoniae [23]
  Activity: 96%
Klebsiella pneumoniae [24]
  Activity: 93%
Staphylococcus aureus [25]
  Activity: 81.8%
Enterobacter cloacae [26]
  Activity: 98.6%
Acinetobacter baumannii [27]
  Activity: 100%
[28]
  Activity: 46.2%
Enterococcus faecalis [29]
  Activity: 35.8%
Enterococcus faecalis [30]
  Activity: 67.9%
Klebsiella pneumoniae [31]
  Activity: 69.8%
Escherichia coli [32]
  Activity: 75.1%
Pseudomonas aeruginosa [33]
  Activity: 42.3%
Enterococcus faecalis [34]
  Activity: 2.5%

## COc1c(N2C[C@@H](C)C[C@H](N)C2)ccc2c(=O)c(C(=O)O)cn(C3CC3)c12 [NEMONOXACIN]
[1]
  Activity: 100%
Staphylococcus aureus [2]
  Activity: 93.9%
Acinetobacter baumannii [3]
  Activity: 86.7%
Klebsiella oxytoca
  Activity: 81.3%
Staphylococcus aureus [4]
  Activity: 34.6%
Streptococcus pneumoniae
  Activity: 99.4%
Pseudomonas aeruginosa [5]
  Activity: 51.1%
Enterobacteriaceae
  MIC90: 0.5 µg/mL (≈ 1.35 µM)
Enterobacter cloacae [6]
  Activity: 93.1%
Enterobacter cloacae [7]
  Activity: 100%
Enterococcus faecium
  Activity: 31.6%
Escherichia coli [8]
  Activity: 68.8%
Staphylococcus aureus [9]
  Activity: 4%
[10]
  Activity: 73.1%
Enterobacter cloacae [11]
  Activity: 91.7%
Klebsiella pneumoniae [12]
  Activity: 77.9%
[13]
  Activity: 97.8%
Escherichia coli [14]
  Activity: 72.5%
Pseudomonas aeruginosa [15]
  Activity: 66.4%
Staphylococcus aureus [16]
  Activity: 60%
Acinetobacter baumannii [17]
  Activity: 73.3%
[18]
  Activity: 42.3%
[19]
  Activity: 86%
Proteus mirabilis
  Activity: 81.8%
Klebsiella pneumoniae [20]
  Activity: 98%
Staphylococcus aureus [21]
  Activity: 16.5%
Klebsiella pneumoniae [22]
  Activity: 86.9%
Klebsiella pneumoniae [23]
  Activity: 94%
Klebsiella pneumoniae [24]
  Activity: 92%
Staphylococcus aureus [25]
  Activity: 92.5%
Enterobacter cloacae [26]
  Activity: 95.8%
Acinetobacter baumannii [27]
  Activity: 100%
[28]
  Activity: 26.9%
Enterococcus faecalis [29]
  Activity: 90.1%
Enterococcus faecalis [30]
  Activity: 97.5%
Klebsiella pneumoniae [31]
  Activity: 1.5%
Escherichia coli [32]
  Activity: 74.8%
Pseudomonas aeruginosa [33]
  Activity: 14.6%
Enterococcus faecalis [34]
  Activity: 67.9%
